Patent publication US8420884B2, “Models of malignant brain cancer, and therapeutic siRNAs against oncogenic signaling pathways, and methods and kits for uses therefor” (Tufts Medical Center Inc., priority 2008, dated 2013)
Entries after “also recorded” stand apart in the source; their conditions may differ.

What was measured:
[1] = tested on: recurrent and newly diagnosed GBMs; settings: unselected patients; phase II; cited from earlier work
[2] = tested on: GBM tumors in conditional EGFR animals; settings: animal number 2148; 80 days
Experimental: Bioluminescence was measured noninvasively using the IVIS 200 imaging system (Xenogen). For live imaging, the surface areas of focus for imaging were depilated using commercial depilatory creams. Images were taken 10 min after IP injection of luciferin (225 mg/kg, Xenogen) to allow sufficient time for distribution of luciferin, with a 60 second photon acquisition during which mice were sedated via continuous inhalation of 3% isoflurane. For organ imaging post luciferin injection, animals were incubated for 10 min and perfused transcardially with saline. Bioluminescence imaging was then performed on individually dissected organs. Signal intensity was quantified for defined regions of interest as photon count rate per unit body area per unit solid angle subtended by the detector (units of photons/s/cm^2/steradian). All image analyses and bioluminescent quantification were performed using Living Image software v. 2.50 (Xenogen).
Conditional EGFR animals were examined using bioluminescence imaging at different periods of time after tumor induction with Ad-Cre-recombinase by the methods above.

GBM culture 102 = assay: Cytotoxicity of NXD30001 and 17-AAG in GBM cultures; assay type: cell-based, mouse; settings: GBM 102; mean of three independent experiments ± standard deviation
Experimental: (§1) Primary cultures of tumors or newborn mice astrocytes were established as follows: tumors or P0 neonate cortices were excised and minced in 0.25% trypsin (wt/vol) 1 mM EDTA and allowed to disaggregate for 15 min at 37° C. The resulting cell suspension was then strained through a 70-μm cell strainer (Falcon). The single suspension of cells was washed in PBS twice and plated on 0.2% gelatin-coated tissue culture plates. Cells were fed every 24 hr with fresh medium that consisted of DMEM supplemented with 10% heat-inactivated FBS and antibiotics. The primary cultures of astrocytes were routinely stained for markers of astrocytic lineages by immunofluorescence.
(§2) Cytotoxicity of NXD30001 was assessed in GMB cell proliferating cultures obtained from clinical mouse subjects and was compared to that of 17-(Allylamino)-17-demethoxygeldanamycin (17-AAG), an ansamycin antibiotic which binds to HSP90. Data obtained was analyzed as half maximum inhibitory concentration (1050) values (Table 3).

GBM culture 103 = assay: as above; assay type: cell-based, mouse; settings: GBM 103; mean of three independent experiments ± standard deviation
Experimental: as §1, §2

GBM culture 2000 = assay: as above; assay type: cell-based, mouse; settings: GBM 2000; mean of three independent experiments ± standard deviation
Experimental: as §1, §2

GBM culture 2227 = assay: as above; assay type: cell-based, mouse; settings: GBM 2227; mean of three independent experiments ± standard deviation
Experimental: as §1, §2

GBM culture 2231 = assay: as above; assay type: cell-based, mouse; settings: GBM 2231; mean of three independent experiments ± standard deviation
Experimental: as §1, §2

GBM culture 2414 = assay: as above; assay type: cell-based, mouse; settings: GBM 2414; mean of three independent experiments ± standard deviation
Experimental: as §1, §2

GBM culture 2415 = assay: as above; assay type: cell-based, mouse; settings: GBM 2415; mean of three independent experiments ± standard deviation
Experimental: as §1, §2

GBM culture 2734 = assay: as above; assay type: cell-based, mouse; settings: GBM 2734; mean of three independent experiments ± standard deviation
Experimental: as §1, §2

GBM culture 41 = assay: as above; assay type: cell-based, mouse; settings: GBM 41; mean of three independent experiments ± standard deviation
Experimental: as §1, §2

GBM culture 42 = assay: as above; assay type: cell-based, mouse; settings: GBM 42; mean of three independent experiments ± standard deviation
Experimental: as §1, §2

GBM culture 46 = assay: as above; assay type: cell-based, mouse; settings: GBM 46; mean of three independent experiments ± standard deviation
Experimental: as §1, §2

GBM culture 69 = assay: as above; assay type: cell-based, mouse; settings: GBM 69; mean of three independent experiments ± standard deviation
Experimental: as §1, §2

GBM-1 cells = assay: as above; assay type: cell-based, mouse; settings: mean of three independent experiments ± standard deviation
Experimental: as §1, §2

GBM-2 cells = assay: as above; assay type: cell-based, mouse; settings: mean of three independent experiments ± standard deviation
Experimental: as §1, §2

GBMs = settings: GBM patients; cited from earlier work

Structure (SMILES): COc1cc2ncnc(Nc3ccc(F)c(Cl)c3)c2cc1OCCCN1CCOCC1 [gefitinib]
- overall efficacy [1]: minimal when compared with historical data

Structure (SMILES): C#Cc1cccc(Nc2ncnc3cc(OCCOC)c(OCCOC)cc23)c1 [Tarceva, erlotinib]
- outcome by bioluminescence imaging [2]: essentially cured by treatment; also recorded: essentially been cured of cancer
- overall efficacy [1]: minimal when compared with historical data

Structure (SMILES): C=CCNC1=C2C[C@@H](C)C[C@H](OC)[C@H](O)[C@@H](C)/C=C(\C)[C@H](OC(N)=O)[C@@H](OC)/C=C\C=C(/C)C(=O)NC(=CC1=O)C2=O [17-AAG, 17-(Allylamino)-17-demethoxygeldanamycin]
- IC50 (GBM culture 102): 626.2 ± 6 nM
- IC50 (GBM culture 103): 794 ± 28.7 nM
- IC50 (GBM culture 2000): 345 ± 75.5 nM
- IC50 (GBM culture 2227): 712 nM
- IC50 (GBM culture 2231): 737 ± 72 nM
- IC50 (GBM culture 2414): 205 ± 13.1 nM
- IC50 (GBM culture 2415): 329 ± 50.1 nM
- IC50 (GBM culture 2734): 381 nM
- IC50 (GBM culture 41): 100 ± 5 nM
- IC50 (GBM culture 42): 166 ± 24.9 nM
- IC50 (GBM culture 46): 91.9 ± 1.4 nM
- IC50 (GBM culture 69): 91 nM
- IC50 (GBM-1 cells): 208 ± 9.6 nM
- IC50 (GBM-2 cells): 1100 ± 119 nM

Structure (SMILES): CO[C@H]1C[C@@H]2CC[C@@H](C)[C@@](O)(O2)C(=O)C(=O)N2CCCC[C@H]2C(=O)O[C@H]([C@H](C)C[C@@H]2CC[C@@H](OC(=O)C(C)(CO)CO)[C@H](OC)C2)CC(=O)[C@H](C)/C=C(\C)[C@@H](O)[C@@H](OC)C(=O)[C@H](C)C[C@H](C)/C=C/C=C/C=C/1C [temsirolimus]
- Phase II results of two clinical trials (GBMs): negative, with no improvement in response rates, progression-free survival or overall survival
